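Grown in 96-well plates, cells were treated for 48 hours with each compound at five concentrations. Insufficient inhibition: endpoint recorded as highest concentration tested. At the TGI there is no net growth.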
Assays:
Assay in all cases: DTP human tumour cell line panel, 48 h
EKVX NSCLC = system: EKVX NSCLC
M19-MEL melanoma = system: M19-MEL melanoma
CAKI-1 renal = system: CAKI-1 renal
LXFL 529 NSCLC = system: LXFL 529 NSCLC
SN12C renal = system: SN12C renal
KM12 colon = system: KM12 colon
XF 498 CNS = system: XF 498 CNS
ACHN renal = system: ACHN renal
MALME-3M melanoma = system: MALME-3M melanoma
SK-MEL-28 melanoma = system: SK-MEL-28 melanoma
UACC-62 melanoma = system: UACC-62 melanoma
UACC-257 melanoma = system: UACC-257 melanoma
TK-10 renal = system: TK-10 renal
HT29 colon = system: HT29 colon
786-0 renal = system: 786-0 renal
SNB-75 CNS = system: SNB-75 CNS
U251 CNS = system: U251 CNS
MOLT-4 leukemia = system: MOLT-4 leukemia
LOX IMVI melanoma = system: LOX IMVI melanoma
HCC-2998 colon = system: HCC-2998 colon
SK-MEL-5 melanoma = system: SK-MEL-5 melanoma
SF-295 CNS = system: SF-295 CNS
OVCAR-5 ovarian = system: OVCAR-5 ovarian
A498 renal = system: A498 renal
COLO 205 colon = system: COLO 205 colon
IGROV1 ovarian = system: IGROV1 ovarian
OVCAR-4 ovarian = system: OVCAR-4 ovarian
HCT-116 colon = system: HCT-116 colon
HOP-92 NSCLC = system: HOP-92 NSCLC
A549 NSCLC = system: A549 NSCLC
SNB-78 CNS = system: SNB-78 CNS
M14 melanoma = system: M14 melanoma
HL-60(TB) leukemia = system: HL-60(TB) leukemia
UO-31 renal = system: UO-31 renal
SK-MEL-2 melanoma = system: SK-MEL-2 melanoma
DMS 273 small cell lung = system: DMS 273 small cell lung
RPMI-8226 leukemia = system: RPMI-8226 leukemia
KM20L2 colon = system: KM20L2 colon
NCI-H226 lung = system: NCI-H226 lung
SF-268 CNS = system: SF-268 CNS
SF-539 CNS = system: SF-539 CNS
HOP-62 NSCLC = system: HOP-62 NSCLC
OVCAR-3 ovarian = system: OVCAR-3 ovarian
NCI-H460 lung = system: NCI-H460 lung
SNB-19 CNS = system: SNB-19 CNS
K-562 leukemia = system: K-562 leukemia
SW-620 colon = system: SW-620 colon
RXF 393 renal = system: RXF 393 renal
CCRF-CEM leukemia = system: CCRF-CEM leukemia
SK-OV-3 ovarian = system: SK-OV-3 ovarian
NCI-H23 lung = system: NCI-H23 lung
SR leukemia = system: SR leukemia
OVCAR-8 ovarian = system: OVCAR-8 ovarian
HCT-15 colon = system: HCT-15 colon
RXF-631 renal = system: RXF-631 renal
DLD-1 colon = system: DLD-1 colon
DMS 114 small cell lung = system: DMS 114 small cell lung
NCI-H522 lung = system: NCI-H522 lung

Compound: COc1cc([C@@H]2c3cc4c(cc3[C@@H](NC(=O)c3cccc(N)c3)C3COC(=O)[C@@H]32)OCO4)cc(OC)c1O (some centres not stated)
- TGI (EKVX NSCLC): 15.6 µM
- TGI (M19-MEL melanoma): > 100 µM
- TGI (CAKI-1 renal): 6.18 µM
- TGI (LXFL 529 NSCLC): > 100 µM
- TGI (SN12C renal): 3.78 µM
- TGI (KM12 colon): 15 µM
- TGI (XF 498 CNS): 25 µM
- TGI (ACHN renal): 2.4 µM
- TGI (MALME-3M melanoma): 8.87 µM
- TGI (SK-MEL-28 melanoma): > 88.5 µM
- TGI (UACC-62 melanoma): 7.94 µM
- TGI (UACC-257 melanoma): > 100 µM
- TGI (TK-10 renal): 18.4 µM
- TGI (HT29 colon): 21.3 µM
- TGI (786-0 renal): 2.3 µM
- TGI (SNB-75 CNS): 11.6 µM
- TGI (U251 CNS): 4.51 µM
- TGI (MOLT-4 leukemia): 2.33 µM
- TGI (LOX IMVI melanoma): 12.7 µM
- TGI (HCC-2998 colon): 7.23 µM
- TGI (SK-MEL-5 melanoma): 6.16 µM
- TGI (SF-295 CNS): 5.13 µM
- TGI (OVCAR-5 ovarian): 12.8 µM
- TGI (A498 renal): 8.08 µM
- TGI (COLO 205 colon): > 100 µM
- TGI (IGROV1 ovarian): > 41.6 µM
- TGI (OVCAR-4 ovarian): > 66.9 µM
- TGI (HCT-116 colon): > 42.4 µM
- TGI (HOP-92 NSCLC): 15.9 µM
- TGI (A549 NSCLC): 2.55 µM
- TGI (SNB-78 CNS): > 84.4 µM
- TGI (M14 melanoma): > 20.4 µM
- TGI (HL-60(TB) leukemia): 2.11 µM
- TGI (UO-31 renal): 26.1 µM
- TGI (SK-MEL-2 melanoma): 10.1 µM
- TGI (DMS 273 small cell lung): 12.1 µM
- TGI (RPMI-8226 leukemia): 18.1 µM
- TGI (KM20L2 colon): 36 µM
- TGI (NCI-H226 lung): 1.62 µM
- TGI (SF-268 CNS): 13.9 µM
- TGI (SF-539 CNS): 1.53 µM
- TGI (HOP-62 NSCLC): 0.0964 µM
- TGI (OVCAR-3 ovarian): 30.2 µM
- TGI (NCI-H460 lung): 1.97 µM
- TGI (SNB-19 CNS): 31.6 µM
- TGI (K-562 leukemia): > 49.3 µM
- TGI (SW-620 colon): 35 µM
- TGI (RXF 393 renal): 23.5 µM
- TGI (CCRF-CEM leukemia): > 33 µM
- TGI (SK-OV-3 ovarian): > 22.9 µM
- TGI (NCI-H23 lung): 2.22 µM
- TGI (SR leukemia): 0.321 µM
- TGI (OVCAR-8 ovarian): 14.8 µM
- TGI (HCT-15 colon): 19.7 µM
- TGI (RXF-631 renal): 18.5 µM
- TGI (DLD-1 colon): > 67.2 µM

Compound: Cc1cc(C)nc(NS(=O)(=O)c2ccc(NC(=O)c3cccc4c(Nc5ccc(S(=O)(=O)N=C(N)N)cc5)c5ccc(Cl)cc5nc34)cc2)n1
- TGI (EKVX NSCLC): > 100 µM
- TGI (M19-MEL melanoma): > 100 µM
- TGI (LXFL 529 NSCLC): > 100 µM
- TGI (SN12C renal): > 100 µM
- TGI (KM12 colon): > 100 µM
- TGI (XF 498 CNS): > 100 µM
- TGI (DMS 114 small cell lung): > 100 µM
- TGI (ACHN renal): > 100 µM
- TGI (MALME-3M melanoma): > 100 µM
- TGI (SK-MEL-28 melanoma): > 100 µM
- TGI (UACC-62 melanoma): > 100 µM
- TGI (UACC-257 melanoma): 59.9 µM
- TGI (TK-10 renal): > 100 µM
- TGI (HT29 colon): > 100 µM
- TGI (786-0 renal): 32.2 µM
- TGI (SNB-75 CNS): > 100 µM
- TGI (U251 CNS): 31.4 µM
- TGI (MOLT-4 leukemia): 60.8 µM
- TGI (LOX IMVI melanoma): 43.3 µM
- TGI (HCC-2998 colon): 43.5 µM
- TGI (SF-295 CNS): 53 µM
- TGI (OVCAR-5 ovarian): > 100 µM
- TGI (A498 renal): > 100 µM
- TGI (HCT-116 colon): 35.4 µM
- TGI (SNB-78 CNS): > 100 µM
- TGI (M14 melanoma): > 100 µM
- TGI (UO-31 renal): > 100 µM
- TGI (NCI-H522 lung): 39.8 µM
- TGI (RPMI-8226 leukemia): 63 µM
- TGI (KM20L2 colon): > 100 µM
- TGI (SF-268 CNS): > 100 µM
- TGI (SF-539 CNS): 73.7 µM
- TGI (HOP-62 NSCLC): > 100 µM
- TGI (OVCAR-3 ovarian): 52.2 µM
- TGI (NCI-H460 lung): > 100 µM
- TGI (SNB-19 CNS): 53.3 µM
- TGI (K-562 leukemia): > 100 µM
- TGI (RXF 393 renal): 36.5 µM
- TGI (CCRF-CEM leukemia): > 100 µM
- TGI (SK-OV-3 ovarian): > 100 µM
- TGI (NCI-H23 lung): > 100 µM
- TGI (SR leukemia): 80.5 µM
- TGI (OVCAR-8 ovarian): > 100 µM
- TGI (HCT-15 colon): > 100 µM
- TGI (RXF-631 renal): > 100 µM
- TGI (DLD-1 colon): 43.2 µM

From PubChem BioAssay (NCI)
